Experimental data reported in patent publication US9156796B2, “Benzoimidazole-carboxylic acid amide derivatives as APJ receptor modulators” (SANOFI, priority 2013, dated 2015).
Like-named read-outs stand apart in the source and are kept apart here.

Target: T1, human apelin receptor (Homo sapiens, UniProt P35414)
T1 construct: expressed in transfected cells
T1 sequence (P35414 1-380): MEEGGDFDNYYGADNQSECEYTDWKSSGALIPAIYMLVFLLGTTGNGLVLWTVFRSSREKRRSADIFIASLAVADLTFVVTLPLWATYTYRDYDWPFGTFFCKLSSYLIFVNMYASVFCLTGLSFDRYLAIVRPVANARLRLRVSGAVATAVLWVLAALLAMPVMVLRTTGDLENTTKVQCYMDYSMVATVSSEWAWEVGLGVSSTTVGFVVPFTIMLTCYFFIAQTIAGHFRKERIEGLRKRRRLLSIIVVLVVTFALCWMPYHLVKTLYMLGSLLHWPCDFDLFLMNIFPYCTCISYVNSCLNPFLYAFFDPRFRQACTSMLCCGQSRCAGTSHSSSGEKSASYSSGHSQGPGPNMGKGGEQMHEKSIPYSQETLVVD
Test: Determination of agonism on the human apelin receptor by a calcium fluorescence assay (FLIPR)
Assay type: cell-based
Conditions: HEK293 cells stably transfected with human apelin receptor and Giaq protein, Fluo-4 calcium fluorescence
How it was run: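 HEK293 cells stably co-expressing human apelin receptor and promiscuous Giaq, loaded 1 h at 37 °C with Fluo-4 (4 μM) in probenecid-containing Hepes buffer, pH 7.4. Compounds, at least 7 concentrations in triplicate, added in FLIPR Tetra; peak calcium fluorescence normalized to 1 μM apelin-13 as 100% to derive EC50.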

SMILES | EC50 (read-out: EC50 (APJ agonism)) [nM] | EC50 (EC50 (APJ agonism)) [nM]
CCC(CC)n1c(Cc2cccs2)nc2cc(C(=O)N[C@H](CO)C(C)C)ccc21 [Example 190, 1-(1-Ethyl-propyl)-2-thiophen-2-ylmethyl-1H-benzoimidazole-5-carboxylic acid ((S)-1-hydroxymethyl-2-methyl-propyl)-amide] | – | 6280
CCC(CC)n1c(Cc2cccs2)nc2cc(C(=O)N[C@H](CO)C(C)(C)C)ccc21 [Example 192, 1-(1-Ethyl-propyl)-2-thiophen-2-ylmethyl-1H-benzoimidazole-5-carboxylic acid ((S)-1-hydroxymethyl-2,2-dimethyl-propyl)-amide] | – | 14000
CCC(CC)n1c(Cc2cccs2)nc2cc(C(=O)NC3(CO)CCCC3)ccc21 [Example 193, 1-(1-Ethyl-propyl)-2-thiophen-2-ylmethyl-1H-benzoimidazole-5-carboxylic acid (1-hydroxymethyl-cyclopentyl)-amide] | 6220 | –
CCC(CC)n1c(Cc2cscn2)nc2cc(C(=O)N[C@H](CO)CC(C)C)ccc21 [Example 205, 1-(1-Ethyl-propyl)-2-thiazol-4-ylmethyl-1H-benzoimidazole-5-carboxylic acid ((S)-1-hydroxymethyl-3-methyl-butyl)-amide] | 1750 | –
CCC(CC)n1c(Cc2cscn2)nc2cc(C(=O)N[C@H](COC)CC(C)C)ccc21 [Example 206, 1-(1-Ethyl-propyl)-2-thiazol-4-ylmethyl-1H-benzoimidazole-5-carboxylic acid ((S)-1-methoxymethyl-3-methyl-butyl)-amide] | 2300 | –
CCC(CC)n1c(Cc2cccs2)nc2cc(C(=O)N[C@H](COC)CC(C)C)ccc21 [Example 207, 1-(1-Ethyl-propyl)-2-thiophen-2-ylmethyl-1H-benzoimidazole-5-carboxylic acid ((S)-1-methoxymethyl-3-methyl-butyl)-amide] | – | 554
CCCCOC[C@H](CC(C)C)NC(=O)c1ccc2c(c1)nc(Cc1cccs1)n2C(CC)CC [Example 210, 1-(1-Ethyl-propyl)-2-thiophen-2-ylmethyl-1H-benzoimidazole-5-carboxylic acid ((S)-1-butoxymethyl-3-methyl-butyl)-amide] | 10200 | –
CC(C)C[C@@H](CO)NC(=O)c1ccc2c(c1)nc(Cc1cccs1)n2C1CCCCC1C (stereo partly drawn) [Example 211, 1-(2-Methyl-cyclohexyl)-2-thiophen-2-ylmethyl-1H-benzoimidazole-5-carboxylic acid ((S)-1-hydroxymethyl-3-methyl-butyl)-amide] | 705 | –
CCC(CC)n1c(Cc2cccs2)nc2cc(C(=O)N[C@@H](CC(C)C)C(=O)NC3CCC3)ccc21 [Example 215, 1-(1-Ethyl-propyl)-2-thiophen-2-ylmethyl-1H-benzoimidazole-5-carboxylic acid ((S)-1-cyclobutylcarbamoyl-3-methyl-butyl)-amide] | 1450 | –
CC(C)C[C@H](NC(=O)c1ccc2c(c1)nc(Cc1cccs1)n2C1CCCCC1C)C(=O)N(C)C (stereo partly drawn) [Example 216, 1-(2-Methyl-cyclohexyl)-2-thiophen-2-ylmethyl-1H-benzoimidazole-5-carboxylic acid ((S)-1-dimethyl-carbamoyl-3-methyl-butyl)-amide] | 1730 | –
CCC(CC)n1c(Cc2cccs2)nc2cc(C(=O)N[C@@H](CC(C)C)C(=O)N3CCSCC3)ccc21 [Example 217, 1-(1-Ethyl-propyl)-2-thiophen-2-ylmethyl-1H-benzoimidazole-5-carboxylic acid [(S)-3-methyl-1-(thiomorpholine-4-carbonyl)-butyl]-amide] | 2210 | –
CCC(C)NC(=O)[C@H](CC(C)C)NC(=O)c1ccc2c(c1)nc(Cc1cccs1)n2C(CC)CC (stereo partly drawn) [Example 218, 1-(1-Ethyl-propyl)-2-thiophen-2-ylmethyl-1H-benzoimidazole-5-carboxylic acid ((S)-1-sec-butylcarbamoyl-3-methyl-butyl)-amide] | 2010 | –
CCC(CC)n1c(Cc2cccs2)nc2cc(C(=O)N[C@@H](CC(C)C)C(=O)NCCC3CCCN3C)ccc21 (stereo partly drawn) [Example 219, 1-(1-Ethyl-propyl)-2-thiophen-2-ylmethyl-1H-benzoimidazole-5-carboxylic acid {(S)-3-methyl-1-[2-(1-methyl-pyrrolidin-2-yl)-ethylcarbamoyl]-butyl}-amide] | 274 | –

Now from value to compound, other results behind:

EC50 (read-out: EC50 (APJ agonism)) [nM] | SMILES | EC50 (EC50 (APJ agonism)) [nM]
6300 | CCC(CC)n1c(Cc2cccs2)nc2cc(C(=O)N[C@@H](CO)CC(C)C)ccc21 [Example 191, 1-(1-Ethyl-propyl)-2-thiophen-2-ylmethyl-1H-benzoimidazole-5-carboxylic acid ((R)-1-hydroxymethyl-3-methyl-butyl)-amide] | –
960 | CCC(CC)n1c(Cc2cccs2)nc2cc(C(=O)N[C@H](CO)[C@@H](C)CC)ccc21 [Example 194, 1-(1-Ethyl-propyl)-2-thiophen-2-ylmethyl-1H-benzoimidazole-5-carboxylic acid ((1S,2S)-1-hydroxymethyl-2-methyl-butyl)-amide] | –
15200 | CCC(CC)n1c(Cc2cccs2)nc2cc(C(=O)N[C@@H](CO)CCSC)ccc21 [Example 195, 1-(1-Ethyl-propyl)-2-thiophen-2-ylmethyl-1H-benzoimidazole-5-carboxylic acid ((R)-1-hydroxymethyl-3-methylsulfanyl-propyl)-amide] | –
922 | CCCC(CO)NC(=O)c1ccc2c(c1)nc(Cc1cccs1)n2C(CC)CC (stereo not drawn) [Example 196, 1-(1-Ethyl-propyl)-2-thiophen-2-ylmethyl-1H-benzoimidazole-5-carboxylic acid (1-hydroxymethyl-butyl)-amide] | –
1040 | CCCCC(CO)NC(=O)c1ccc2c(c1)nc(Cc1cccs1)n2C(CC)CC (stereo not drawn) [Example 197, 1-(1-Ethyl-propyl)-2-thiophen-2-ylmethyl-1H-benzoimidazole-5-carboxylic acid (1-hydroxymethyl-pentyl)-amide] | –
8880 | CCCC[C@H](CO)NC(=O)c1ccc2c(c1)nc(Cc1cccs1)n2C(CC)CC [Example 198, 1-(1-Ethyl-propyl)-2-thiophen-2-ylmethyl-1H-benzoimidazole-5-carboxylic acid ((R)-1-hydroxymethyl-pentyl)-amide] | –
710 | CCCC[C@@H](CO)NC(=O)c1ccc2c(c1)nc(Cc1cccs1)n2C(CC)CC [Example 199, 1-(1-Ethyl-propyl)-2-thiophen-2-ylmethyl-1H-benzoimidazole-5-carboxylic acid ((S)-1-hydroxymethyl-pentyl)-amide] | –
8180 | CCC[C@H](CO)NC(=O)c1ccc2c(c1)nc(Cc1cccs1)n2C(CC)CC [Example 200, 1-(1-Ethyl-propyl)-2-thiophen-2-ylmethyl-1H-benzoimidazole-5-carboxylic acid ((R)-1-hydroxymethyl-butyl)-amide] | –
334 | CCC[C@@H](CO)NC(=O)c1ccc2c(c1)nc(Cc1cccs1)n2C(CC)CC [Example 201, 1-(1-Ethyl-propyl)-2-thiophen-2-ylmethyl-1H-benzoimidazole-5-carboxylic acid ((S)-1-hydroxymethyl-butyl)-amide] | –
14400 | CCC(CC)n1c(Cc2cccs2)nc2cc(C(=O)NC(CO)c3ccccc3)ccc21 (stereo not drawn) [Example 202, 1-(1-Ethyl-propyl)-2-thiophen-2-ylmethyl-1H-benzoimidazole-5-carboxylic acid (2-hydroxy-1-phenyl-ethyl)-amide] | –
24700 | CCC(CC)n1c(Cc2cccs2)nc2cc(C(=O)N[C@@H](CO)C3CCCCC3)ccc21 [Example 203, 1-(1-Ethyl-propyl)-2-thiophen-2-ylmethyl-1H-benzoimidazole-5-carboxylic acid ((R)-1-cyclohexyl-2-hydroxy-ethyl)-amide] | –
1990 | CCC(CC)n1c(Cc2cccs2)nc2cc(C(=O)N[C@H](CO)C3CCCCC3)ccc21 [Example 204, 1-(1-Ethyl-propyl)-2-thiophen-2-ylmethyl-1H-benzoimidazole-5-carboxylic acid ((S)-1-cyclohexyl-2-hydroxy-ethyl)-amide] | –
1160 | CCOC[C@H](CC(C)C)NC(=O)c1ccc2c(c1)nc(Cc1cccs1)n2C(CC)CC [Example 208, 1-(1-Ethyl-propyl)-2-thiophen-2-ylmethyl-1H-benzoimidazole-5-carboxylic acid ((S)-1-ethoxymethyl-3-methyl-butyl)-amide] | –
254 | CCC(CC)n1c(Cc2cccs2)nc2cc(C(=O)N[C@H](CO)CC(C)C)ccc21 [Example 209, 1-(1-Ethyl-propyl)-2-thiophen-2-ylmethyl-1H-benzoimidazole-5-carboxylic acid ((S)-1-hydroxymethyl-3-methyl-butyl)-amide] | –
9290 | CCC(CC)n1c(Cc2cccs2)nc2cc(C(=O)NC(CCO)c3ccsc3)ccc21 (stereo not drawn) [Example 212, 1-(1-Ethyl-propyl)-2-thiophen-2-ylmethyl-1H-benzoimidazole-5-carboxylic acid (3-hydroxy-1-thiophen-3-yl-propyl)-amide] | –
29900 | CCC(CC)n1c(Cc2cccs2)nc2cc(C(=O)NC(CCO)C3CC3)ccc21 (stereo not drawn) [Example 213, 1-(1-Ethyl-propyl)-2-thiophen-2-ylmethyl-1H-benzoimidazole-5-carboxylic acid (1-cyclopropyl-3-hydroxy-propyl)-amide] | –
926 | CCCC(CCO)NC(=O)c1ccc2c(c1)nc(Cc1cccs1)n2C(CC)CC (stereo not drawn) [Example 214, 1-(1-Ethyl-propyl)-2-thiophen-2-ylmethyl-1H-benzoimidazole-5-carboxylic acid [1-(2-hydroxy-ethyl)-butyl]-amide] | –
